Laboratory results from patent US20240342121A1, “THE USE OF BETA-HYDROXYBUTYRATES FOR THE TREATMENT OR PREVENTION OF ANEURYSMS AND DISSECTIONS” (priority 2021, published 2024).
Entries after “also recorded” stand apart in the source; their conditions may differ.

Experiments:
[1] = system: Oct4 overexpressed senescent SMCs; test: Oct4 overexpressed senescent SMCs (SA β-Gal, Western blot); type: cell-based
Excerpt: FIGS. 14A-14B show (a) SA β-Gal activity on Oct4 overexpressed SMCs with or without βHB treatment (2 days). Irradiated SMCs were infected by Lentivirus containing Crispr-dCas9-VP64_Oct4 plasmid prior to treating βHB. The arrow indicates localized senescent cell mass. (b) Western blot analysis after lentivirus (Crispr-dCas9-VP64_Oct4) infection into senescent SMCs without βHB treatment for 1 day or 2 days.
We proposed that Oct4 upregulation in senescence forms senescent spheroid-like cell mass and asymmetric configuration of aneurysms. To validate our central hypothesis, we overexpressed Oct4 in senescent SMCs using the CRISPR-dCas9-VP64 system to determine the role of Oct4. […] Localized increase of senescence may be highly associated with asymmetric dilation of aneurysms. […] We supposed that βHB prevents or reverses Oct4-induced senescence of SMCs, consequently reducing the size of aneurysms. To investigate the role of βHB in aneurysms, we assess the possibility of cellular reprogramming in senescent SMCs in the condition of Oct4 overexpression. […] In particular, a moderate increase of FAP (Fibroblast Activation Protein) provides a potential for reprogramming resulting in transdifferentiation of SMCs to myofibroblast. Recovered SM22 expression in Oct4 overexpressed senescent SMCs supposed that βHB converts the Oct4 function in dedifferentiation into a reprogramming-related role. We considered an βHB-induced epigenetic alteration of senescent cells contributing to Oct4-dependent cellular reprogramming based on this unique observation.

[2] = system: senescent SMCs; test: Flow cytometry (FACS) apoptosis analysis, PI and Annexin V; type: cell-based; details: FIGS. 2B, 2C
Protocol: FIGS. 2A-2L. (a) Cytotoxicity assay of normal smooth muscle cells (NS) and senescent smooth muscle cells (SMCs). Replicative senescent SMCs (RS) and premature senescent SMCs, stimulated by H2O2 (HP), arsenic (Ars), and Nutlin 3a (Nut) treatment were treated with βHB, s-βHB, and ABT-737. (b) Flow cytometry analysis of apoptosis by βHB or s-βHB in radiation (10 Gy)-induced senescent SMC. (c) Quantitation of apoptotic cell and senescent cell after treating βHB and s-βHB in radiation-induced senescent SMC. (d) Representative aorta image of AII-infused mice with post-treatment of ABT-737, βHB and s-βHB. (e) External diameter of abdominal aorta infused with AII and post-treated with ABT-737 βHB and s-βHB. (f) SA-βGal activity assay of the whole aorta infused with AII, and post-treated with ABT-737, KD, or KE. (g) Quantitation of senescent area on aorta of AII-infused mice, and post-treated with KD, KE and ABT-737. (h) TUNEL assay on the abdominal aorta of AII infused mice, and treated with ABT-737, βHB, or s-βHB. SM-α Actin (SMA) and DAPI are co-stained after TUNEL reaction. (i) Caspase 3 activity assay on normal SMCs (NC) treated with βHB, or s-βHB, and ABT-737 comparing to normal cells pretreated with Nutlin-3a. (j) Caspase 3 activity assay on senescent SMCs (SNC) treated with βHB, or s-βHB, and ABT-737 compared to senescent cells pretreated with pifithrin-α. […]

[3] = system: CaCl2-induced AAA; test: CaCl2-induced AAA animal model, post-treatment; type: in vivo, mouse
Protocol: FIGS. 5A-5J. (a) Representative image of aorta which developed CaCl2)-induced AAA, and post-treated with KD, KE, βHB, s-βHB, or ABT-737. KD is provided to mice for 4 weeks, KE is administrated with drinking water, βHB, s-βHB or ABT-737 are IP injected for 2 weeks with 48h intervals. (b) Incidence of AAA by CaCl2) treatment and proportion of mice recovered from the AAA after post-treatment of KD, KE, βHB and s-βHB for 2 weeks. (c) Time-dependent observation of inner diameter after CaCl2) treatment and post-treatment of KD or KE (28˜56 days after surgery). (d) Comparison of ultrasound images of CaCl2)-induced AAA to the identical aorta post-treated with βHB for 2 weeks. (e) H&E staining of aorta from the mice developed with CaCl2)-induced AAA, and post-treated with KD, KE, βHB, and s-βHB. (f) SA β-Gal activity assay on aorta which developed CaCl2)-induced AAA, and post-treated with KD, KE, βHB, s-βHB, or ABT-737. (g) Quantitation of senescent area on aorta developed with CaCl2)-induced AAA, and post-treated with KD, KE, βHB, s-βHB. (h) Verhoeff Van Gieson/EVG staining of abdominal aorta developed with CaCl2)-induced AAA, post-treated with KD, KE, βHB and s-βHB. (i) Average number of elastic fibers on abdominal aorta presented at FIG. 5H. (j) Measurement of Pulse Wave Velocity (PWV) on CaCl2)-infused mice with post-treatment of KD, KE, βHB, and s-βHB.
To confirm the possibility that the therapeutic effect of βHB on AAA is not only applied to AII-induced AAA, the CaCl2)-induced AAA animal model was also examined as well (FIG. 5A).
To further validate the therapeutic efficacy of s-βHB on aneurysms, we used a CaCl2-induced AAA animal model as well as an angiotensin II infusion model. […] Two-way ANOVA, s-βHB vs βHB, #P<0.01, n=10. Since the elimination of senescent SMCs is critical for the recovery of AAA, we investigated that s-βHB is also effective to remove senescent cells in CaCl2)-induced aneurysms. […] Student's T-test for s-βHB vs βHB, ^#P<0.05, n=8.

## C[C@@H](O)CC(=O)O [βHB, (R)-3-Hydroxybutyrate]
[1]; Oct4 overexpressed, FIG. 14B
  SM22 and β-galactosidase in Oct4 overexpressed-senescent cells: recovers SMC maturation marker (SM22) and reduced senescence marker (β-galactosidase)
[1]; Oct4 overexpression by CRISPR-dCas9-VP64, FIG. 14A
  localized senescence, SA β-Gal activity: significantly reverses or prevents the development of localized senescence
[1]; without Oct4 activation, FIG. 14B
  SM22 in senescent SMCs without Oct4 activation: does not recover SM22
[2]
  apoptosis of senescent SMCs: induced targeted apoptosis of senescent SMCs
[3]; FIG. 5D
  abnormal curvature on aortic wall (ultrasound): repaired abnormal curvature on aortic wall
[3]; FIGS. 5A and 5B
  recovery from CaCl2-induced AAA: Effective recovery
[3]; FIGS. 5F and 5G
  senescent cells, SA β-gal assay: significantly reduced; also recorded: less effective than KD, KE and s-βHB
[3]; FIGS. 5H and 5I
  elastic laminar / vascular integrity: improved vascular integrity
[3]; comparison between treatments, FIG. 5B
  recovery rate of AAA: less effectiveness compared to s-βHB, KD, and KE treatment
[3]; post-treatment after four weeks, FIG. 5C
  AAA progression: inhibited AAA progression
